{
  "source": "PubChem BioAssay AID1963985",
  "about": "(Molecular Pharmacology Branch, DTP, NCI, 2024)",
  "system": "252836-082-R-J2-PDC tumor spheroids, viability",
  "assay": "Anticancer human tumor 252836-082-R-J2-PDC patient-derived head and neck squamous cell carcinoma cell line growth inhibition [PI3K]",
  "details": "spheroids with HUVEC and MSC; for pIC50: curve of first compound; for viability, T/C: stronger effect = lower value",
  "summary_of_the_method": "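Complex 3D spheroids (cancer cells + endothelial HUVEC + mesenchymal stem cells); drug pairs of targeted agent x inavolisib/alpelisib/duvelisib/copanlisib; half-log series from ~Cmax, max 10 microM if Cmax unknown; endpoint viability.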",
  "note": "pIC50: −log10 of the molar value.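 Also: spheroids exposed to agents for seven days before readout.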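 For viability, T/C in this document: percent of vehicle DMSO control viability so 100% = untreated growth.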",
  "data": [
    {"smiles": "Cn1cnc2c(F)c(Nc3ccc(Br)cc3Cl)c(C(=O)NOCCO)cc21", "note": "+ CC(Nc1ccc2c(c1)OCCn1cc(N3C(=O)OCC3C(F)F)nc1-2)C(N)=O", "values": [
      {"measurement": "pIC50", "setting": "second compound 0.00316 µM", "result": "< 5.52"},
      {"measurement": "pIC50", "setting": "second compound 0.01 µM", "result": 5.62},
      {"measurement": "pIC50", "setting": "second compound 0.0316 µM", "result": 5.82},
      {"measurement": "pIC50", "setting": "second compound 0.1 µM", "result": 6.25},
      {"measurement": "pIC50", "setting": "second compound 0.316 µM", "result": "> 8.02"},
      {"measurement": "pIC50", "setting": "second compound 1 µM", "result": "> 8.02"},
      {"measurement": "viability, T/C", "setting": "second compound 0.00316 µM, first compound 0.00949 µM", "result": 81.4, "unit": "%"},
      {"measurement": "viability, T/C", "setting": "second compound 0.00316 µM, first compound 0.03 µM", "result": 73.8, "unit": "%"},
      {"measurement": "viability, T/C", "setting": "second compound 0.00316 µM, first compound 0.0949 µM", "result": 86.3, "unit": "%"},
      {"measurement": "viability, T/C", "setting": "second compound 0.00316 µM, first compound 0.3 µM", "result": 79.6, "unit": "%"},
      {"measurement": "viability, T/C", "setting": "second compound 0.00316 µM, first compound 0.949 µM", "result": 72.4, "unit": "%"},
      {"measurement": "viability, T/C", "setting": "second compound 0.00316 µM, first compound 3 µM", "result": 52.1, "unit": "%"},
      {"measurement": "viability, T/C", "setting": "second compound 0.01 µM, first compound 0.00949 µM", "result": 81.7, "unit": "%"},
      {"measurement": "viability, T/C", "setting": "second compound 0.01 µM, first compound 0.03 µM", "result": 71.2, "unit": "%"},
      {"measurement": "viability, T/C", "setting": "second compound 0.01 µM, first compound 0.0949 µM", "result": 78.5, "unit": "%"},
      {"measurement": "viability, T/C", "setting": "second compound 0.01 µM, first compound 0.3 µM", "result": 76.9, "unit": "%"},
      {"measurement": "viability, T/C", "setting": "second compound 0.01 µM, first compound 0.949 µM", "result": 73.8, "unit": "%"},
      {"measurement": "viability, T/C", "setting": "second compound 0.01 µM, first compound 3 µM", "result": 44.5, "unit": "%"},
      {"measurement": "viability, T/C", "setting": "second compound 0.0316 µM, first compound 0.00949 µM", "result": 66.1, "unit": "%"},
      {"measurement": "viability, T/C", "setting": "second compound 0.0316 µM, first compound 0.03 µM", "result": 60.7, "unit": "%"},
      {"measurement": "viability, T/C", "setting": "second compound 0.0316 µM, first compound 0.0949 µM", "result": 77.9, "unit": "%"},
      {"measurement": "viability, T/C", "setting": "second compound 0.0316 µM, first compound 0.3 µM", "result": 65.2, "unit": "%"},
      {"measurement": "viability, T/C", "setting": "second compound 0.0316 µM, first compound 0.949 µM", "result": 55.1, "unit": "%"},
      {"measurement": "viability, T/C", "setting": "second compound 0.0316 µM, first compound 3 µM", "result": 42.4, "unit": "%"},
      {"measurement": "viability, T/C", "setting": "second compound 0.1 µM, first compound 0.00949 µM", "result": 58.9, "unit": "%"},
      {"measurement": "viability, T/C", "setting": "second compound 0.1 µM, first compound 0.03 µM", "result": 54.7, "unit": "%"},
      {"measurement": "viability, T/C", "setting": "second compound 0.1 µM, first compound 0.0949 µM", "result": 58.4, "unit": "%"},
      {"measurement": "viability, T/C", "setting": "second compound 0.1 µM, first compound 0.3 µM", "result": 51.7, "unit": "%"},
      {"measurement": "viability, T/C", "setting": "second compound 0.1 µM, first compound 0.949 µM", "result": 47.8, "unit": "%"},
      {"measurement": "viability, T/C", "setting": "second compound 0.1 µM, first compound 3 µM", "result": 31.4, "unit": "%"},
      {"measurement": "viability, T/C", "setting": "second compound 0.316 µM, first compound 0.00949 µM", "result": 49.9, "unit": "%"},
      {"measurement": "viability, T/C", "setting": "second compound 0.316 µM, first compound 0.03 µM", "result": 47.6, "unit": "%"},
      {"measurement": "viability, T/C", "setting": "second compound 0.316 µM, first compound 0.0949 µM", "result": 47.5, "unit": "%"},
      {"measurement": "viability, T/C", "setting": "second compound 0.316 µM, first compound 0.3 µM", "result": 46.3, "unit": "%"},
      {"measurement": "viability, T/C", "setting": "second compound 0.316 µM, first compound 0.949 µM", "result": 30.8, "unit": "%"},
      {"measurement": "viability, T/C", "setting": "second compound 0.316 µM, first compound 3 µM", "result": 18.2, "unit": "%"},
      {"measurement": "viability, T/C", "setting": "second compound 1 µM, first compound 0.00949 µM", "result": 42.5, "unit": "%"},
      {"measurement": "viability, T/C", "setting": "second compound 1 µM, first compound 0.03 µM", "result": 40, "unit": "%"},
      {"measurement": "viability, T/C", "setting": "second compound 1 µM, first compound 0.0949 µM", "result": 37, "unit": "%"},
      {"measurement": "viability, T/C", "setting": "second compound 1 µM, first compound 0.3 µM", "result": 38, "unit": "%"},
      {"measurement": "viability, T/C", "setting": "second compound 1 µM, first compound 0.949 µM", "result": 29.1, "unit": "%"},
      {"measurement": "viability, T/C", "setting": "second compound 1 µM, first compound 3 µM", "result": 13.3, "unit": "%"}
    ]},
    {"smiles": "C[C@@H](NC(=O)c1ncnc(N)c1Cl)c1ncc(C(=O)Nc2cc(C(F)(F)F)c(Cl)cn2)s1", "note": "+ CC(Nc1ncnc2nc[nH]c12)c1cc2cccc(Cl)c2c(=O)n1-c1ccccc1", "values": [
      {"measurement": "pIC50", "setting": "second compound 0.0316 µM", "result": "< 5.00"},
      {"measurement": "pIC50", "setting": "second compound 0.1 µM", "result": "< 5.00"},
      {"measurement": "pIC50", "setting": "second compound 0.316 µM", "result": "< 5.00"},
      {"measurement": "pIC50", "setting": "second compound 1 µM", "result": "< 5.00"},
      {"measurement": "pIC50", "setting": "second compound 3.16 µM", "result": "< 5.00"},
      {"measurement": "pIC50", "setting": "second compound 10 µM", "result": "< 5.00"},
      {"measurement": "viability, T/C", "setting": "second compound 0.0316 µM, first compound 0.0316 µM", "result": 109, "unit": "%"},
      {"measurement": "viability, T/C", "setting": "second compound 0.0316 µM, first compound 0.1 µM", "result": 97.1, "unit": "%"},
      {"measurement": "viability, T/C", "setting": "second compound 0.0316 µM, first compound 0.316 µM", "result": 100, "unit": "%"},
      {"measurement": "viability, T/C", "setting": "second compound 0.0316 µM, first compound 1 µM", "result": 105, "unit": "%"},
      {"measurement": "viability, T/C", "setting": "second compound 0.0316 µM, first compound 3.16 µM", "result": 103, "unit": "%"},
      {"measurement": "viability, T/C", "setting": "second compound 0.0316 µM, first compound 10 µM", "result": 74, "unit": "%"},
      {"measurement": "viability, T/C", "setting": "second compound 0.1 µM, first compound 0.0316 µM", "result": 96.3, "unit": "%"},
      {"measurement": "viability, T/C", "setting": "second compound 0.1 µM, first compound 0.1 µM", "result": 94.7, "unit": "%"},
      {"measurement": "viability, T/C", "setting": "second compound 0.1 µM, first compound 0.316 µM", "result": 86.7, "unit": "%"},
      {"measurement": "viability, T/C", "setting": "second compound 0.1 µM, first compound 1 µM", "result": 92.1, "unit": "%"},
      {"measurement": "viability, T/C", "setting": "second compound 0.1 µM, first compound 3.16 µM", "result": 94.5, "unit": "%"},
      {"measurement": "viability, T/C", "setting": "second compound 0.1 µM, first compound 10 µM", "result": 82.3, "unit": "%"},
      {"measurement": "viability, T/C", "setting": "second compound 0.316 µM, first compound 0.0316 µM", "result": 90.1, "unit": "%"},
      {"measurement": "viability, T/C", "setting": "second compound 0.316 µM, first compound 0.1 µM", "result": 89.7, "unit": "%"},
      {"measurement": "viability, T/C", "setting": "second compound 0.316 µM, first compound 0.316 µM", "result": 98.5, "unit": "%"},
      {"measurement": "viability, T/C", "setting": "second compound 0.316 µM, first compound 1 µM", "result": 99.4, "unit": "%"},
      {"measurement": "viability, T/C", "setting": "second compound 0.316 µM, first compound 3.16 µM", "result": 94.3, "unit": "%"},
      {"measurement": "viability, T/C", "setting": "second compound 0.316 µM, first compound 10 µM", "result": 86.5, "unit": "%"},
      {"measurement": "viability, T/C", "setting": "second compound 1 µM, first compound 0.0316 µM", "result": 96.8, "unit": "%"},
      {"measurement": "viability, T/C", "setting": "second compound 1 µM, first compound 0.1 µM", "result": 89.9, "unit": "%"},
      {"measurement": "viability, T/C", "setting": "second compound 1 µM, first compound 0.316 µM", "result": 90.7, "unit": "%"},
      {"measurement": "viability, T/C", "setting": "second compound 1 µM, first compound 1 µM", "result": 92.7, "unit": "%"},
      {"measurement": "viability, T/C", "setting": "second compound 1 µM, first compound 3.16 µM", "result": 97.8, "unit": "%"},
      {"measurement": "viability, T/C", "setting": "second compound 1 µM, first compound 10 µM", "result": 88.6, "unit": "%"},
      {"measurement": "viability, T/C", "setting": "second compound 3.16 µM, first compound 0.0316 µM", "result": 73.5, "unit": "%"},
      {"measurement": "viability, T/C", "setting": "second compound 3.16 µM, first compound 0.1 µM", "result": 84.5, "unit": "%"},
      {"measurement": "viability, T/C", "setting": "second compound 3.16 µM, first compound 0.316 µM", "result": 89.5, "unit": "%"},
      {"measurement": "viability, T/C", "setting": "second compound 3.16 µM, first compound 1 µM", "result": 93.1, "unit": "%"},
      {"measurement": "viability, T/C", "setting": "second compound 3.16 µM, first compound 3.16 µM", "result": 72.7, "unit": "%"},
      {"measurement": "viability, T/C", "setting": "second compound 3.16 µM, first compound 10 µM", "result": 70.1, "unit": "%"},
      {"measurement": "viability, T/C", "setting": "second compound 10 µM, first compound 0.0316 µM", "result": 70.8, "unit": "%"},
      {"measurement": "viability, T/C", "setting": "second compound 10 µM, first compound 0.1 µM", "result": 69, "unit": "%"},
      {"measurement": "viability, T/C", "setting": "second compound 10 µM, first compound 0.316 µM", "result": 55.5, "unit": "%"},
      {"measurement": "viability, T/C", "setting": "second compound 10 µM, first compound 1 µM", "result": 64.5, "unit": "%"},
      {"measurement": "viability, T/C", "setting": "second compound 10 µM, first compound 3.16 µM", "result": 72.1, "unit": "%"},
      {"measurement": "viability, T/C", "setting": "second compound 10 µM, first compound 10 µM", "result": 65.4, "unit": "%"}
    ]},
    {"smiles": "CC1(C)CCC(CN2CCN(c3ccc(C(=O)NS(=O)(=O)c4ccc(NCC5CCOCC5)c([N+](=O)[O-])c4)c(Oc4cnc5[nH]ccc5c4)c3)CC2)=C(c2ccc(Cl)cc2)C1", "values": [
      {"measurement": "viability, T/C", "setting": "compound 0.0316 µM", "result": "97.7% [middle of 4 runs]"},
      {"measurement": "viability, T/C", "setting": "compound 0.1 µM", "result": "99.2% [middle of 4 runs]"},
      {"measurement": "viability, T/C", "setting": "compound 0.316 µM", "result": "100% [middle of 4 runs]"},
      {"measurement": "viability, T/C", "setting": "compound 1 µM", "result": "96% [middle of 4 runs]"}
    ]}
  ]
}
